Test systems include LXFL 529; M19-MEL; RXF 631; DMS-273; KM-20L2; SNB-78; DMS-114; XF498; HOP-18.
Common to all, as to assay: NCI anticancer screen, dose series, 48 h

This note sets out measurements from ChEMBL document CHEMBL1201862, “PubChem BioAssay data set” (2004).

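Cells were grown in 96-well plates and exposed to each compound for 48 hours at five concentrations; endpoints were interpolated linearly between bracketing concentrations, or set to the highest concentration if not reached. GI50 marks 50% less growth.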 The source made the active and inactive calls. No stated cut-off is given here; in the data, active = GI50 up to about 1.1 µM and inactive = higher.

For `N=C(N)NCCCC(Nc1c2ccccc2nc2ccccc12)C(=O)O` (stereo unspecified), the GI50 is > 100 µM (inactive) in the assay with LXFL 529; > 100 µM (inactive) in the assay on M19-MEL; 75.3 µM (inactive) in the assay with RXF 631; > 100 µM (inactive) in the assay with DMS-273; > 100 µM (inactive) with KM-20L2.
Take `CCCCc1c2c(nc3c1CCc1cc4cc5c(nc4nc1-3)-c1nc3c(c(CCCC)c1CC5)CCCC3)CCCC2`: the GI50 in the assay on SNB-78 is > 100 µM (inactive); with LXFL 529, 18 µM (inactive); in the assay with M19-MEL it was 54 µM (inactive); with DMS-114, 26.8 µM (inactive); with DMS-273, 42.2 µM (inactive); with KM-20L2, 22.8 µM (inactive).
Regarding `CC(C)CC(=O)NS(=O)(=O)c1ccccc1`, the GI50 in the assay with SNB-78, with LXFL 529, in the assay on M19-MEL, in the assay on RXF 631, with XF498 and in the assay on DMS-114 was > 100 µM (inactive) throughout. Also, the GI50 in the assay with HOP-18 and in the assay with KM-20L2 was > 100 µM (inactive) throughout.
Take `Cc1ccc(NC(=O)C2C(=O)N(c3ccc(C)c(C)c3)C(=O)/C2=N/O)cc1C` (stereo unspecified): the GI50 with SNB-78, with LXFL 529, with RXF 631, in the assay with XF498, in the assay with DMS-114 and in the assay with DMS-273 was > 100 µM (inactive) throughout. The GI50 in the assay with HOP-18 and in the assay with KM-20L2 was > 100 µM (inactive) throughout.
With `CCSC1(SCC)CCN(/C=N/C(C)(C)C)C1`, the GI50 with SNB-78 was > 100 µM (inactive); with LXFL 529, > 100 µM (inactive); in the assay with M19-MEL, > 100 µM (inactive); with RXF 631 it was > 100 µM (inactive); in the assay with XF498, > 100 µM (inactive); in the assay with DMS-114, 44.7 µM (inactive). Besides, the GI50 in the assay on DMS-273, in the assay on HOP-18 and in the assay with KM-20L2 was > 100 µM (inactive) throughout.
Consider `COc1ccc(C2=NN(C(=O)COc3ccc(Cl)cc3)C(O)(c3ccc(Cl)cc3)C2)cc1` (stereo unspecified), for which the GI50 with SNB-78 was 66.5 µM (inactive); in the assay on LXFL 529 it was > 100 µM (inactive); in the assay on RXF 631 it was > 100 µM (inactive); in the assay on XF498, > 100 µM (inactive); in the assay on DMS-273 it was > 100 µM (inactive); in the assay on KM-20L2, > 100 µM (inactive).
For the compound `CC(C)(C)C(=O)CC(=O)C(C)(C)C.CC(C)(C)C(=O)CC(=O)C(C)(C)C.[SiH4]`, the GI50 in the assay with LXFL 529 was 1.56 µM (inactive); with M19-MEL, 1.86 µM (inactive); in the assay with XF498 it was 0.519 µM (active); with DMS-114, 0.566 µM (active); in the assay on DMS-273, 0.446 µM (active); in the assay with HOP-18 it was 2.36 µM (inactive). Also, in the assay on KM-20L2, the GI50 is 1.62 µM (inactive).
Take `CC(O[Si](C)(C)C)C1C=CC(C)n2c(=O)n(-c3ccccc3)c(=O)n21` (stereo unspecified): the GI50 in the assay with SNB-78, in the assay with M19-MEL, in the assay with DMS-114 and in the assay with HOP-18 was > 100 µM (inactive) throughout.
For the compound `COC1C=CC23c4cc5c(cc4C(O)OC2CN(C)C3C1)OCO5` (stereo unspecified), the GI50 is 1.45 µM (inactive) in the assay on LXFL 529; 1.52 µM (inactive) in the assay on M19-MEL; 1.26 µM (inactive) with DMS-114; 1.4 µM (inactive) in the assay with DMS-273; 1.29 µM (inactive) with KM-20L2.
As for `CCOC(=O)C(C)(c1c(C)[nH]c2ccccc12)c1c(C)[nH]c2ccccc12`, the GI50 in the assay on SNB-78 is 17.5 µM (inactive); in the assay on LXFL 529, 51.4 µM (inactive); with XF498 it was 21.8 µM (inactive); in the assay on DMS-114 it was 15.7 µM (inactive); in the assay on DMS-273 it was 14.1 µM (inactive); with KM-20L2, 16.4 µM (inactive).
In the case of `CCCC12Cc3c(OC)ccc(OC)c3CC(Cc3c(OC)ccc(OC)c31)C2=O` (stereo unspecified), the GI50 in the assay with SNB-78 is > 100 µM (inactive); with LXFL 529 it was 10.2 µM (inactive); in the assay with M19-MEL it was > 100 µM (inactive); in the assay on DMS-114 it was 34.8 µM (inactive); in the assay with DMS-273, > 100 µM (inactive).
In the case of `COc1ccc2c(c1OC)C1=C(C2=O)c2cc3c(cc2CCN1)OCO3`, the GI50 is 89.7 µM (inactive) with SNB-78; 33.1 µM (inactive) in the assay with LXFL 529; 42.1 µM (inactive) with M19-MEL; 40.3 µM (inactive) with XF498; 22.6 µM (inactive) with DMS-114; 24.2 µM (inactive) in the assay with DMS-273. The GI50 is 52.5 µM (inactive) in the assay with HOP-18 and 17.9 µM (inactive) in the assay on KM-20L2.
Take `Cc1ccc(S(=O)(=O)N/N=C(/CC(=O)c2c(C)[n+]([O-])c3ccccc3[n+]2[O-])C(=O)Nc2ccccc2C)cc1`: the GI50 in the assay on SNB-78, in the assay on LXFL 529, in the assay on M19-MEL, in the assay with DMS-114, with DMS-273 and in the assay on HOP-18 was > 100 µM (inactive) in each case. In the assay with KM-20L2, the GI50 is > 100 µM (inactive).
For `Cc1cc2c(=O)cc(-c3cccs3)oc2c(C(=O)O)c1C`, the GI50 is 49.4 µM (inactive) in the assay on LXFL 529, > 100 µM (inactive) in the assay on M19-MEL, > 100 µM (inactive) in the assay with DMS-273 and > 100 µM (inactive) in the assay with KM-20L2.
For `Cc1cccc2c1NC(c1c(C)[nH]c3ccccc13)C2` (stereo unspecified), the GI50 with LXFL 529 was > 100 µM (inactive); with M19-MEL, > 100 µM (inactive); in the assay with RXF 631, > 100 µM (inactive); in the assay on XF498, 51.9 µM (inactive); in the assay on DMS-114 it was 56.1 µM (inactive); in the assay on HOP-18 it was > 100 µM (inactive). Moreover, the GI50 in the assay with KM-20L2 is > 100 µM (inactive).
On to `COc1ccc(-c2cc(=O)c3c(OC)cccc3o2)c(OC)c1OC`, for which the GI50 in the assay on SNB-78 was > 100 µM (inactive); in the assay on LXFL 529, 82.2 µM (inactive); in the assay with M19-MEL, > 100 µM (inactive); with DMS-114 it was > 100 µM (inactive); in the assay on DMS-273, > 100 µM (inactive); in the assay with KM-20L2 it was > 100 µM (inactive).
With `COC12OCCN(C)C1=CC(=O)C1(C)N=NCC12` (stereo unspecified), the GI50 in the assay on SNB-78, with LXFL 529, in the assay with M19-MEL, in the assay on DMS-114, in the assay on DMS-273 and in the assay on HOP-18 was > 100 µM (inactive) throughout.
`O=C1C(c2cnc3ccccc3n2)=C(O)c2ccccc21`: the GI50 in the assay on SNB-78 is > 100 µM (inactive); in the assay on LXFL 529, > 100 µM (inactive); in the assay on M19-MEL it was > 100 µM (inactive); in the assay with RXF 631, > 100 µM (inactive); in the assay on DMS-114, > 100 µM (inactive); with DMS-273, 0.281 µM (active). For the same compound, the GI50 in the assay on KM-20L2 is > 100 µM (inactive).
For `Brc1ccccc2cc(-c3ccccc3)nc1-2`, the GI50 is 2.85 µM (inactive) in the assay with SNB-78; 1.73 µM (inactive) with LXFL 529; 11.9 µM (inactive) in the assay with RXF 631; 1.98 µM (inactive) with XF498; 2.16 µM (inactive) in the assay with DMS-114; 4.35 µM (inactive) in the assay with DMS-273. Moreover, the GI50 with HOP-18 was 3.78 µM (inactive); with KM-20L2, 1.71 µM (inactive).
Consider `C=C1c2[nH]c3c([N+](=O)[O-])c(OC)ccc3c2CCN1C(C)=O`, for which the GI50 in the assay on SNB-78, in the assay on LXFL 529, in the assay on DMS-114, with DMS-273 and in the assay with KM-20L2 was > 100 µM (inactive) each time.
Consider `CCOc1cc[n+]([C-](C#N)C#N)cc1`, for which the GI50 in the assay on SNB-78, in the assay on LXFL 529, with M19-MEL, with RXF 631, in the assay with XF498 and in the assay on DMS-114 was > 100 µM (inactive) throughout. Moreover, the GI50 in the assay on DMS-273 and with KM-20L2 was > 100 µM (inactive) in each case.
Consider `Cc1ccc(N(C(=O)CC(=O)N2N=C(c3ccccc3)C(/N=N/c3ccc([N+](=O)[O-])cc3)C2=O)C(=O)c2ccc(Cl)cc2)cc1` (stereo unspecified), for which the GI50 is 6.95 µM (inactive) in the assay with SNB-78; 15.5 µM (inactive) in the assay on LXFL 529; 26 µM (inactive) with M19-MEL; 21.8 µM (inactive) in the assay on XF498; 20 µM (inactive) with DMS-114; 5.94 µM (inactive) in the assay on DMS-273. Besides, the results for the GI50 in the assay on HOP-18 and in the assay on KM-20L2 were 27.4 µM (inactive) and 23.3 µM (inactive), respectively.
On to `O=C(NNc1ccccc1)/C(=C/c1ccc2c(c1)OCO2)NC(=O)c1ccccc1`, for which the GI50 with SNB-78, with LXFL 529, in the assay on XF498, in the assay on DMS-273, with HOP-18 and in the assay on KM-20L2 was > 100 µM (inactive) in each case.
On to `COc1ccc(/C=N/Nc2nc(-c3cc4oc(=O)n(C)c4cc3Cl)cs2)cc1OC`, for which the GI50 was 37.2 µM (inactive) in the assay on SNB-78; 15.3 µM (inactive) in the assay with LXFL 529; 7.8 µM (inactive) in the assay with M19-MEL; 21 µM (inactive) in the assay with RXF 631; 10.7 µM (inactive) in the assay on XF498; 5.87 µM (inactive) with DMS-114. Moreover, the GI50 in the assay with DMS-273 was 11.9 µM (inactive); in the assay with HOP-18 it was > 100 µM (inactive); with KM-20L2 it was 15.7 µM (inactive).
`O=C(Cc1ccccc1)NN1C(=O)C(Cl)C1c1cccc([N+](=O)[O-])c1` (stereo unspecified): the GI50 is > 71.8 µM (inactive) with SNB-78; 14.2 µM (inactive) with LXFL 529; 5.16 µM (inactive) in the assay with M19-MEL; 31.2 µM (inactive) with XF498; 28.5 µM (inactive) in the assay on DMS-114; 36.5 µM (inactive) in the assay on DMS-273. Further, the results for the GI50 in the assay with HOP-18 and in the assay with KM-20L2 were 31.3 µM (inactive) and > 83.4 µM (inactive), respectively.
